Patent US20210274823A1, “NOVEL TRITERPENE-GLYCOSIDES AS SWEETENERS OR SWEETENER ENHANCER” (priority 2017, published 2021)

Test: Organoleptic test of the compounds of formula (I) against sucrose
Set-up: key to sweetness compared to sucrose: 3: sweeter than the control solution; 2: sweetness comparable with the control solution; 1: less sweet than the control solution but still sweet
Conditions: panel of 3-4 panelists; for sweetness compared to sucrose: test compound dissolved in water (Evian) at 400 ppm, control sucrose 20 g/l; for Comment (taste impression): test compound dissolved in water at 400 ppm
Protocol: The isolated pure compounds were dissolved in non-carbonated mineral water (“Evian”) in a concentration of 0.4 mg/ml (400 ppm). The sweet taste of each sample was compared by a panel of 3-4 panelists with a solution of sucrose in a concentration of 20 g/l.

| SMILES | sweetness compared to sucrose | Comment (taste impression) |
| --- | --- | --- |
| CC(C)=CCC[C@](C)(O[C@@H]1O[C@H](CO)[C@@H](O)[C@H](O)[C@H]1O)[C@H]1CC[C@]2(C)[C@@H]1[C@H](O)CC1[C@@]3(C)C[C@@H](O)[C@H](O[C@@H]4O[C@H](COC5OCC(O)C(O)C5O)[C@@H](O)[C@H](O)[C@H]4O[C@@H]4O[C@H](CO)[C@@H](O)[C@H](O)[C@H]4O)C(C)(C)C3CC[C@]12C (stereo partly drawn) [Compound H] | 3 | Slightly bitter |
| CC(C)(O)/C=C/C[C@](C)(O[C@@H]1O[C@H](CO)[C@@H](O)[C@H](O)[C@H]1O)[C@H]1CC[C@]2(C)C1[C@H](O)CC1[C@@]3(C)C[C@@H](O)[C@H](O[C@@H]4O[C@H](CO)[C@@H](O)[C@H](O)[C@H]4O[C@@H]4O[C@H](CO)[C@@H](O)[C@H](O)[C@H]4O)C(C)(C)C3CC[C@]12C (stereo partly drawn) [Compound D] | 3 | – |
| CC(CO)C(=O)CC[C@](C)(O[C@@H]1O[C@H](CO)[C@@H](O)[C@H](O)[C@H]1O)[C@H]1CC[C@]2(C)[C@@H]1[C@H](O)CC1[C@@]3(C)C[C@@H](O)[C@H](O[C@@H]4O[C@H](CO)[C@@H](O)[C@H](O)[C@H]4O[C@@H]4O[C@H](CO)[C@@H](O)[C@H](O)[C@H]4O)C(C)(C)C3CC[C@]12C (stereo partly drawn) [Compound K] | 3 | – |
| CC(CO)C(=O)CC[C@](C)(O[C@@H]1O[C@H](CO)[C@@H](O)[C@H](O)[C@H]1O)[C@H]1CC[C@]2(C)[C@@H]1[C@H](O)CC1[C@@]3(C)C[C@@H](O)[C@H](O[C@@H]4O[C@H](CO)[C@@H](O)[C@H](O)[C@H]4O[C@@H]4O[C@H](CO)[C@@H](O)[C@H](O)[C@H]4O)C(C)(C)C3CC[C@]12C (stereo partly drawn) [Compound L] | 2 | – |
| C=C(C)C(O)CC[C@](C)(O[C@@H]1O[C@H](CO[C@@H]2OC[C@@H](O)[C@H](O)[C@H]2O)[C@@H](O)[C@H](O)[C@H]1O)[C@H]1CC[C@]2(C)[C@@H]1[C@H](O)CC1[C@@]3(C)C[C@@H](O)[C@H](O[C@@H]4O[C@H](CO)[C@@H](O)[C@H](O)[C@H]4O[C@@H]4O[C@H](CO)[C@@H](O)[C@H](O)[C@H]4O)C(C)(C)C3CC[C@]12C (stereo partly drawn) [Compound I] | 2 | – |
| C=C(C)C(CC[C@](C)(O[C@@H]1O[C@H](CO[C@@H]2OC[C@@H](O)[C@H](O)[C@H]2O)[C@@H](O)[C@H](O)[C@H]1O)[C@H]1CC[C@]2(C)[C@@H]1[C@H](O)CC1[C@@]3(C)C[C@@H](O)[C@H](O[C@@H]4O[C@H](CO)[C@@H](O)[C@H](O)[C@H]4O[C@@H]4O[C@H](CO)[C@@H](O)[C@H](O)[C@H]4O)C(C)(C)C3CC[C@]12C)OO (stereo partly drawn) [Compound C] | 2 | – |
| CC1(C)C2CC[C@]3(C)C(C[C@@H](O)[C@@H]4[C@@H]([C@](C)(CCCO)O[C@@H]5O[C@H](CO)[C@@H](O)[C@H](O)[C@H]5O)CC[C@]43C)[C@@]2(C)C[C@@H](O)[C@@H]1O[C@@H]1O[C@H](CO)[C@@H](O)[C@H](O)[C@H]1O[C@@H]1O[C@H](CO)[C@@H](O)[C@H](O)[C@H]1O (stereo partly drawn) [Compound J] | 2 | – |
| CC(C)(/C=C/C[C@@](C)(O[C@@H]1O[C@H](CO)[C@@H](O)[C@H](O)[C@H]1O)[C@H]1CC[C@]2(C)[C@@H]1[C@H](O)C[C@@H]1[C@@]3(C)C[C@@H](O)[C@H](O[C@@H]4O[C@H](CO)[C@@H](O)[C@H](O)[C@H]4O[C@@H]4O[C@H](CO)[C@@H](O)[C@H](O)[C@H]4O)C(C)(C)[C@@H]3CC[C@]12C)OO (stereo in doubt) [Compound E] | 3 | – |
| CC(C)=CCC[C@](C)(O[C@@H]1O[C@H](CO)[C@@H](O)[C@H](O)[C@H]1O)[C@H]1CC[C@]2(C)[C@@H]1[C@H](O)CC1[C@@]3(C)C[C@@H](O)[C@H](O[C@@H]4O[C@H](CO)[C@@H](O)[C@H](O)[C@H]4O[C@@H]4O[C@H](CO)[C@@H](O)[C@H](O)[C@H]4O)C(C)(C)C3CC[C@]12C (stereo partly drawn) [Compound B] | 3 | Slightly bitter |
| CC(C)=CCC[C@](C)(O[C@@H]1O[C@H](CO[C@@H]2OC[C@@H](O)[C@H](O)[C@H]2O)[C@@H](O)[C@H](O)[C@H]1O)[C@H]1CC[C@]2(C)[C@@H]1[C@H](O)CC1[C@@]3(C)C[C@@H](O)[C@H](O[C@@H]4O[C@H](CO)[C@@H](O)[C@H](O)[C@H]4O[C@@H]4O[C@H](CO)[C@@H](O)[C@H](O)[C@H]4O)C(C)(C)C3CC[C@]12C (stereo partly drawn) [Compound A] | 2 | Slightly hot |
| CC(C)(/C=C/C[C@](C)(O[C@@H]1O[C@H](CO[C@@H]2OC[C@@H](O)[C@H](O)[C@H]2O)[C@@H](O)[C@H](O)[C@H]1O)[C@H]1CC[C@]2(C)C1[C@H](O)CC1[C@@]3(C)C[C@@H](O)[C@H](O[C@@H]4O[C@H](CO)[C@@H](O)[C@H](O)[C@H]4O[C@@H]4O[C@H](CO)[C@@H](O)[C@H](O)[C@H]4O)C(C)(C)C3CC[C@]12C)OO (stereo partly drawn) [Compound G] | 2 | Slightly bitter |
